Data from patent publication US7507860B2 (Pfizer Inc., priority 2004, dated 2009).
Positions count from the first letter of the chain named.

Columns and labels:
[1] = target: T1, human androgen receptor (hAR) (Homo sapiens, UniProt P10275); experiment: Competitive binding analysis on baculovirus/Sf9 generated hAR extracts with 3H-DHT tracer; settings: AR Binding IC50 (nM), hAR extract, 1 nM 3H-DHT, one hour at 4° C; mean of multiple tests
T1 construct: made in house; host or cells: baculovirus/Sf9 insect cells (crude extract)
T1 sequence (P10275 1-920): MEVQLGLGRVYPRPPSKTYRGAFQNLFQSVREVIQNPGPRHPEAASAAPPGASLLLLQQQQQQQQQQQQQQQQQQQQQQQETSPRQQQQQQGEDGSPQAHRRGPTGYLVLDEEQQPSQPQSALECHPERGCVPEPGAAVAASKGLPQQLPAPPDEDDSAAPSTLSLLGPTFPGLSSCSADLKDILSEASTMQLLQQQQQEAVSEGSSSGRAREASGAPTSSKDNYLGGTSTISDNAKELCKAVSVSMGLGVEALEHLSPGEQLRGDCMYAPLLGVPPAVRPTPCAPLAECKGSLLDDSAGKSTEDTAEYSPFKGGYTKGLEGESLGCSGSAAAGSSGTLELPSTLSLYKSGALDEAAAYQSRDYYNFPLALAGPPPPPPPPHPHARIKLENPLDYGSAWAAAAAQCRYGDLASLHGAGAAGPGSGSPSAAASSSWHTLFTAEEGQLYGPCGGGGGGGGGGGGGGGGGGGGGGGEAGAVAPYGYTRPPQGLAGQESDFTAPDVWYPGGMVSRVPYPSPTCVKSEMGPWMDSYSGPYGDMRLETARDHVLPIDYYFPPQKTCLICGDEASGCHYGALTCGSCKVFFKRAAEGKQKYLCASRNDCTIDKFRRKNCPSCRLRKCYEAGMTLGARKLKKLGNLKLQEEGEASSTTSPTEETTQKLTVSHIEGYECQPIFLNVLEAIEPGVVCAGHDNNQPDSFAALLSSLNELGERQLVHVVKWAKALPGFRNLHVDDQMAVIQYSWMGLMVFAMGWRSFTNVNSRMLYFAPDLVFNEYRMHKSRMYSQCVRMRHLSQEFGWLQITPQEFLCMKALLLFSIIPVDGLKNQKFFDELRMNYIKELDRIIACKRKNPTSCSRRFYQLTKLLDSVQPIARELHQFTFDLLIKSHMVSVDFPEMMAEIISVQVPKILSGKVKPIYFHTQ
Method in brief: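 Baculovirus/Sf9-expressed hAR extract incubated with hydroxylapatite, 1 nM 3H-DHT and decreasing compound concentrations for 1 h at 4 °C, then washed three times to remove unbound tracer. Bound 3H-DHT compared with no-competitor maximum; affinity given as concentration inhibiting half of maximum binding, mean of multiple tests.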

androgen receptor = target: T2, androgen receptor (Homo sapiens, UniProt P10275); experiment: AR antagonist cell assay (MDA-MB453-MMTV clone 54-19 luciferase reporter, 100 pM DHT); format: cell-based; settings: MDA-MB453-MMTV clone 54-19, inhibition of 100 pM DHT induction, 17 hr; mean of multiple tests; read-out: AR Cell IC50
T2 sequence (P10275 1-920 Q868H): T1 sequence (P10275 1-920) with Q868H
Method in brief: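 MDA-MB453 cells stably carrying an MMTV-ARE firefly luciferase reporter were plated overnight at 10,000/well in phenol-red-free, charcoal-stripped serum medium. Cells were stimulated with 100 pM DHT (final) for 17 hr at 37 °C, and AR antagonism was read as luciferase signal; values are means of multiple tests.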

Q: What does the source list for `CC(C)CC(Oc1ccc(C#N)c(C(F)(F)F)c1)C(=O)NCc1ccccc1` (stereo not shown) [Example 1, 2-(4-Cyano-3-trifluoromethyl-phenoxy)-4-methyl-pentanoic acid benzylamide]?
A: IC50 [1]: 95 nM; IC50 (androgen receptor): 201 nM

Q: What does the source list for `CCCC(Oc1ccc(C#N)c(C(F)(F)F)c1)C(=O)NCc1ccccc1` (stereo not shown) [Example 4, 2-(4-Cyano-3-trifluoromethyl-phenoxy)-pentanoic acid benzylamide]?
A: IC50 [1]: 445 nM; IC50 (androgen receptor): 57 nM
